Literature values in patent US7141235B2, “Stabilized gas emulsion containing phospholipid for ultrasound contrast enhancement” (Imcor Pharmaceutical Co., priority 1993, dated 2006).

Conditions: in water

Row | Compound | gel to liquid-crystal phase transition temperature [°C]
1 | CCCCCCCCCCCCCCCCCC(=O)OC[C@H](COP(=O)([O-])OCC[N+](C)(C)C)OC(=O)CCCCCCCCCCCCCCCCC [DSPC, distearoyl phosphatidylcholine] | 55.5
2 | CCCCCCCCCCCCCC(=O)OC[C@H](COP(=O)([O-])OCC[N+](C)(C)C)OC(=O)CCCCCCCCCCCCC [DMPC, dimyristoyl phosphatidylcholine] | 23.5
